# In patent publication US20110052612A1, “SPIROPIPERIDINE COMPOUND AND MEDICINAL USE THEREOF” (ONO PHARMACEUTICAL CO., LTD., priority 2005, published 2011):
# Molecular target: T1, human CXCR3 (Homo sapiens, UniProt P49682)
# T1 construct: expressed in transfected cells
# T1 sequence (P49682 1-368): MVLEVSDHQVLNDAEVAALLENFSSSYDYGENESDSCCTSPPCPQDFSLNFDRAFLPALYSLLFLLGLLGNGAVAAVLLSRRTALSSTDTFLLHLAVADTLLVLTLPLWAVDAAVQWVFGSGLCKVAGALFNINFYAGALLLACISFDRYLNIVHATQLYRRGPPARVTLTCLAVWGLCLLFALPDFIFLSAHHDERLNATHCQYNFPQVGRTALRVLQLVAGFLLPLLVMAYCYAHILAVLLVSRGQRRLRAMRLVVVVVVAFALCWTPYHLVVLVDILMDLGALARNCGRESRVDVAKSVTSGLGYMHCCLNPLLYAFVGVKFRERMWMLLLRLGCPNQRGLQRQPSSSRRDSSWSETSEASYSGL
# Assay: Inhibition of IP-10-induced transient Ca2+ rise in CXCR3/CHO cells
# Assay type: cell-based
# Settings: human IP-10 30 nM
# Experimental: An Inhibitory Experiment Against the Binding of IP-10 and CXCR3 (the Activity of that Ca Ion (Ca^2+) is Raised in Transient and Induced by IP-10)
# The CHO cell (CXCR3/CHO cell) which overexpresses human CXCR3 in stable was suspended with Ham's F-12 culture medium and FBS (10%), was rolled up in 96well plate to become 3.0×10^4 cell/well. After the plate was incubated for one day at 37° C., removed the cultural supernatant, added Ham's F-12 culture media (Fura-2AM (5 μM), Probenecid (2.5 mM) and HEPES (20 mM; pH7.4) were included) to 80 μl/well, incubated for one hour at 37° C. in light exclusion state. […] The transient rise of the intracellular Ca^2+ concentration induced by human IP-10 was measured by means of Ca^2+ detector for 96well (made in Hamamatsu Photonics), and the inhibitory rate (%) of the test compound was calculated by the following calculation formula.
# Ec: The measured value of the Ca^2+ transient rise induced by IP-10 Ea: The measured value of the Ca^2+ transient rise induced by IP-10 when a test compound was added
row,IC50 [nM],Compound
1,3200,"C#CCOc1ccc(CN2CCC3(CCCCC3)CC2)cc1 [Example 5, 3-[4-(prop-2-yn-1-yloxy)benzyl]-3-azaspiro[5.5]undecane]"
2,3400,"CCCN1C(=O)N(CCc2ccccc2)C=CC12CCN(Cc1ccc(Cl)cc1)CC2 [Example 9, 9-(4-chlorobenzyl)-3-(2-phenylethyl)-1-propyl-1,3,9-triazaspiro[5.5]undec-4-en-2-one]"
3,2100,"CCCCN1CCC2(CCN(Cc3ccc(Cl)cc3)CC2)N(C2CCCC2)C1=O [Example 11, 3-butyl-9-(4-chlorobenzyl)-1-cyclopentyl-1,3,9-triazaspiro[5.5]undecan-2-one]"

row,Compound,IC50 [nM]
1,"O=C1C(Cc2ccccc2)CCC2(CCN(Cc3ccc(Cl)cc3)CC2)N1CC1CC1 (stereo not shown) [Example 15, 3-benzyl-9-(4-chlorobenzyl)-1-(cyclopropylmethyl)-1,9-diazaspiro[5.5]undecan-2-one]",1100
